According to PubChem BioAssay (NCI):
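Five concentrations, 48 hours, 96-well plates. Definition used: TGI = concentration required for complete inhibition of growth.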

Key:
Assay in all cases: inhibition of tumour cell growth, NCI panel, 48 h
K-562 leukemia = test system: K-562 leukemia
DMS 114 small cell lung = test system: DMS 114 small cell lung
M19-MEL melanoma = test system: M19-MEL melanoma
UO-31 renal = test system: UO-31 renal
SK-MEL-28 melanoma = test system: SK-MEL-28 melanoma
HL-60(TB) leukemia = test system: HL-60(TB) leukemia
786-0 renal = test system: 786-0 renal
OVCAR-8 ovarian = test system: OVCAR-8 ovarian
HCT-15 colon = test system: HCT-15 colon
SN12C renal = test system: SN12C renal
ACHN renal = test system: ACHN renal
LXFL 529 NSCLC = test system: LXFL 529 NSCLC
RPMI-8226 leukemia = test system: RPMI-8226 leukemia
NCI-H522 lung = test system: NCI-H522 lung
MALME-3M melanoma = test system: MALME-3M melanoma
KM12 colon = test system: KM12 colon
LOX IMVI melanoma = test system: LOX IMVI melanoma
SW-620 colon = test system: SW-620 colon
SF-268 CNS = test system: SF-268 CNS
UACC-62 melanoma = test system: UACC-62 melanoma
SK-MEL-2 melanoma = test system: SK-MEL-2 melanoma
HCT-116 colon = test system: HCT-116 colon
SF-539 CNS = test system: SF-539 CNS
HOP-62 NSCLC = test system: HOP-62 NSCLC
RXF 393 renal = test system: RXF 393 renal
SF-295 CNS = test system: SF-295 CNS
HT29 colon = test system: HT29 colon
SK-MEL-5 melanoma = test system: SK-MEL-5 melanoma
CCRF-CEM leukemia = test system: CCRF-CEM leukemia
M14 melanoma = test system: M14 melanoma
U251 CNS = test system: U251 CNS
HCC-2998 colon = test system: HCC-2998 colon
SNB-78 CNS = test system: SNB-78 CNS
NCI-H23 lung = test system: NCI-H23 lung
NCI-H460 lung = test system: NCI-H460 lung
DLD-1 colon = test system: DLD-1 colon
OVCAR-5 ovarian = test system: OVCAR-5 ovarian
CAKI-1 renal = test system: CAKI-1 renal
IGROV1 ovarian = test system: IGROV1 ovarian
MOLT-4 leukemia = test system: MOLT-4 leukemia
TK-10 renal = test system: TK-10 renal
NCI-H226 lung = test system: NCI-H226 lung
SNB-75 CNS = test system: SNB-75 CNS
SK-OV-3 ovarian = test system: SK-OV-3 ovarian
A498 renal = test system: A498 renal
EKVX NSCLC = test system: EKVX NSCLC
DMS 273 small cell lung = test system: DMS 273 small cell lung
COLO 205 colon = test system: COLO 205 colon
KM20L2 colon = test system: KM20L2 colon
OVCAR-3 ovarian = test system: OVCAR-3 ovarian
SNB-19 CNS = test system: SNB-19 CNS
A549 NSCLC = test system: A549 NSCLC
UACC-257 melanoma = test system: UACC-257 melanoma
XF 498 CNS = test system: XF 498 CNS

Measured: TGI

CC(C)(C)NCC(COc1ccc([N+](=O)[O-])cc1)OP(c1ccccc1)c1ccccc1 (centres undefined)
35.3 µM: RPMI-8226 leukemia
37.3 µM: SK-MEL-5 melanoma
26.7 µM: LOX IMVI melanoma
49.6 µM: MOLT-4 leukemia
79.2 µM: CCRF-CEM leukemia
69.5 µM: NCI-H522 lung
67 µM: MALME-3M melanoma
83.9 µM: DMS 114 small cell lung
47.3 µM: HL-60(TB) leukemia
67.3 µM: XF 498 CNS
94.7 µM: NCI-H226 lung
> 100 µM: all other assays above
